Experimental findings from ChEMBL document CHEMBL1201862, “PubChem BioAssay data set” (2004) are described below.

Some test systems named below: 786-0; SK-OV-3; MDA-MB-231; SW-620; SK-MEL-28; EKVX; RPMI-8226; HOP-62; CCRF-CEM; NCI-H460; NCI-H226; MCF7; K562; HCT-15; SF-539; KM12; LOX IMVI; SN12C; A549; Malme-3M.
What all share (experiment): inhibition of tumour cell growth, NCI panel, 48 h

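Five concentrations, 48 hours, 96-well plates. At the GI50, growth is halved.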 Activity calls are given as the source filed them. Cut-off read from the data, not from the text of the source: active = GI50 up to about 1.1 µM and inactive = higher. Some results are limits rather than exact numbers.

For the compound `O=C1CC(c2cccc(Cl)c2)Oc2ccccc21` (stereo not given), the GI50 was 16.7 µM (inactive) with 786-0; 20.9 µM (inactive) in the experiment with SK-OV-3; 34.5 µM (inactive) in the experiment on MDA-MB-231; 18.3 µM (inactive) in the experiment with SW-620; 18.6 µM (inactive) in the experiment on SK-MEL-28; 14.8 µM (inactive) with EKVX. Moreover, the GI50 in the experiment on RPMI-8226 was 3.65 µM (inactive); with HOP-62 it was 17.1 µM (inactive); in the experiment on CCRF-CEM, 10.1 µM (inactive); in the experiment on NCI-H460 it was 18.4 µM (inactive); in the experiment on NCI-H226, 21.4 µM (inactive); with MCF7 it was 6.4 µM (inactive). Moreover, the GI50 in the experiment with K562 is 2.9 µM (inactive); in the experiment with HCT-15 it was 15.9 µM; in the experiment with SF-539 it was 18.2 µM (inactive); with KM12, 15.7 µM (inactive); with LOX IMVI, 20 µM (inactive).
As for `CCN(CC)c1ccc2nc3ccc(/N=N/c4c(O)ccc5ccccc45)cc3[n+](-c3ccccc3)c2c1`, the GI50 in the experiment with SN12C, with 786-0, with SK-OV-3, with MDA-MB-231, in the experiment with SW-620 and in the experiment on SK-MEL-28 was > 100 µM (inactive) each time. The GI50 in the experiment with EKVX, in the experiment on RPMI-8226, with HOP-62, in the experiment on A549, in the experiment on CCRF-CEM and with NCI-H226 was > 100 µM (inactive) each time. The GI50 was > 100 µM (inactive) with Malme-3M, > 100 µM (inactive) in the experiment on K562, greater than 100 µM with HCT-15 and > 100 µM (inactive) with KM12.
On to `O=C(CSc1nc2ccc(I)cc2c(=O)n1Cc1ccccc1)NN1C(=O)CSC1c1ccccc1` (stereo not given), for which the GI50 in the experiment with SN12C was 23 µM (inactive); in the experiment with 786-0, 38.3 µM (inactive); with SK-OV-3 it was 24.1 µM (inactive); in the experiment with MDA-MB-231, 26.9 µM (inactive); with SW-620, 38 µM (inactive); with SK-MEL-28, 30.2 µM (inactive). Further, the GI50 is 29.2 µM (inactive) in the experiment with EKVX; 31.2 µM (inactive) with RPMI-8226; 18.6 µM (inactive) in the experiment with HOP-62; 35.2 µM (inactive) in the experiment on A549; 29.2 µM (inactive) in the experiment with CCRF-CEM; 18 µM (inactive) in the experiment with NCI-H460. For the same compound, the GI50 is 26.9 µM (inactive) in the experiment on NCI-H226; 19.2 µM (inactive) with MCF7; 26.5 µM (inactive) in the experiment with K562; 14.1 µM in the experiment on HCT-15; 27.9 µM (inactive) with SF-539; 22.5 µM (inactive) with KM12. Further, the GI50 in the experiment with LOX IMVI is 19.5 µM (inactive).
With `OC12C3C4CC5C(C4[C@@H]1Br)C2[C@@](O)(c1c(F)c(F)c(F)c(F)c1F)C53` (stereo not given in full), the GI50 with SN12C was > 100 µM (inactive); in the experiment with 786-0 it was 41.7 µM (inactive); with MDA-MB-231 it was > 100 µM (inactive); with SW-620 it was 43.3 µM (inactive); in the experiment on SK-MEL-28, 39.8 µM (inactive); in the experiment on EKVX, 27.1 µM (inactive). Besides, the GI50 with HOP-62 is 35.1 µM (inactive); with A549, 33.7 µM (inactive); with CCRF-CEM, 21.7 µM (inactive); in the experiment on NCI-H460, 33.7 µM (inactive); with MCF7 it was 20.4 µM (inactive); in the experiment on K562 it was 21.4 µM (inactive). Further, the GI50 in the experiment with HCT-15 is 39.8 µM; in the experiment with SF-539, 56.4 µM (inactive); in the experiment with KM12 it was 15.7 µM (inactive); with LOX IMVI it was 32.1 µM (inactive).
For the compound `C[n+]1ccccc1/C1=c2\cc/c([nH]2)=C(\c2cccc[n+]2C)C2=N/C(=C(/c3cccc[n+]3C)C3C=CC(N3)/C(c3cccc[n+]3C)=C3/C=CC1=N3)C=C2`, the GI50 is > 100 µM (inactive) with SN12C; > 100 µM (inactive) in the experiment with 786-0; > 100 µM (inactive) in the experiment on SK-OV-3; 73.3 µM (inactive) in the experiment with SW-620; > 100 µM (inactive) in the experiment on SK-MEL-28; > 100 µM (inactive) in the experiment with EKVX. Besides, the GI50 in the experiment with RPMI-8226 was 56.1 µM (inactive); in the experiment on HOP-62, > 100 µM (inactive); in the experiment on A549 it was > 100 µM (inactive); in the experiment on CCRF-CEM, 3.26 µM (inactive); in the experiment on NCI-H460, 40.9 µM (inactive); in the experiment with NCI-H226, > 100 µM (inactive). The GI50 was > 100 µM (inactive) in the experiment on MCF7; > 100 µM (inactive) in the experiment with Malme-3M; 26.7 µM (inactive) in the experiment on K562; greater than 100 µM with HCT-15; > 100 µM (inactive) with SF-539; 62.4 µM (inactive) with KM12. Further, the GI50 with LOX IMVI is > 100 µM (inactive).
As to `CC(C)(C)CC(N)=O`, the GI50 with SN12C, in the experiment on 786-0, in the experiment with SK-OV-3, in the experiment with MDA-MB-231, with SW-620 and with SK-MEL-28 was > 100 µM (inactive) each time. The GI50 in the experiment on EKVX is > 100 µM (inactive); in the experiment with RPMI-8226, > 10 µM (inactive); in the experiment on HOP-62 it was > 100 µM (inactive); in the experiment on A549 it was > 100 µM (inactive); in the experiment on CCRF-CEM, > 100 µM (inactive); with NCI-H460 it was > 100 µM (inactive). Also, the GI50 is > 100 µM (inactive) in the experiment with NCI-H226; > 100 µM (inactive) in the experiment with MCF7; > 100 µM (inactive) with K562; greater than 100 µM with HCT-15; > 100 µM (inactive) in the experiment on SF-539; > 100 µM (inactive) in the experiment with KM12. Besides, the GI50 in the experiment on LOX IMVI is > 100 µM (inactive).
For the compound `C(=N\c1ccc(-c2nc3ccccc3o2)cc1)/c1ccco1`, the GI50 is 61.9 µM (inactive) in the experiment with SN12C; 75.2 µM (inactive) in the experiment with 786-0; > 100 µM (inactive) in the experiment on SW-620; > 100 µM (inactive) in the experiment with SK-MEL-28; 48.3 µM (inactive) in the experiment with EKVX; 0.0453 µM (active) in the experiment with RPMI-8226. Also, the GI50 was 91.2 µM (inactive) in the experiment on MCF7; 82.2 µM (inactive) in the experiment with Malme-3M; 49.3 µM with HCT-15; > 100 µM (inactive) in the experiment on SF-539; 58.9 µM (inactive) in the experiment on LOX IMVI.
On to `CN(C)c1nc(Cl)c2c(-c3ccccc3)c(-c3ccccc3)oc2n1`, for which the GI50 in the experiment with SN12C is 39.5 µM (inactive); in the experiment with 786-0, 72.8 µM (inactive); with SK-OV-3 it was 58.3 µM (inactive); in the experiment on MDA-MB-231, 43 µM (inactive); in the experiment with SW-620, 93.5 µM (inactive); in the experiment on SK-MEL-28 it was > 100 µM (inactive). For the same compound, the GI50 in the experiment with EKVX is > 100 µM (inactive); with RPMI-8226 it was 18.9 µM (inactive); with A549, 98.2 µM (inactive); in the experiment with CCRF-CEM, 28.1 µM (inactive); in the experiment on NCI-H226 it was > 100 µM (inactive); with MCF7 it was 28.9 µM (inactive). Moreover, the GI50 in the experiment with K562 is 42.1 µM (inactive); with HCT-15, 31.6 µM; in the experiment with SF-539 it was 48 µM (inactive); in the experiment on KM12, > 100 µM (inactive); in the experiment on LOX IMVI, 33.3 µM (inactive).
Take `CC1=CN(c2ccccc2)S2=C1c1sc3c(c1N2c1ccc(Br)cc1)CCCC3` (stereo not given): the GI50 in the experiment with SN12C, in the experiment on 786-0, in the experiment with SK-OV-3, in the experiment on MDA-MB-231, with SW-620 and in the experiment with SK-MEL-28 was > 100 µM (inactive) throughout. Further, the GI50 in the experiment with EKVX, in the experiment with RPMI-8226, in the experiment on HOP-62, in the experiment with A549, with CCRF-CEM and in the experiment with NCI-H460 was > 100 µM (inactive) in each case. For the same compound, the GI50 in the experiment on NCI-H226 is > 100 µM (inactive); with MCF7, > 100 µM (inactive); in the experiment on K562, > 100 µM (inactive); with HCT-15, greater than 100 µM; in the experiment on SF-539 it was > 100 µM (inactive); with KM12 it was > 100 µM (inactive). Also, in the experiment on LOX IMVI, the GI50 was 97.1 µM (inactive).
For `CC(C)Nc1n[nH]c(=O)n1C(C)C`, the GI50 in the experiment on SN12C, in the experiment with 786-0, in the experiment on SK-OV-3, in the experiment on MDA-MB-231, in the experiment on SW-620 and in the experiment on SK-MEL-28 was > 100 µM (inactive) throughout. The GI50 in the experiment on EKVX, in the experiment on RPMI-8226, in the experiment with HOP-62, with A549, with CCRF-CEM and in the experiment on NCI-H460 was > 100 µM (inactive) in each case. Further, the GI50 is 81.5 µM (inactive) with NCI-H226; > 100 µM (inactive) with MCF7; > 100 µM (inactive) with K562; greater than 100 µM in the experiment with HCT-15; > 100 µM (inactive) in the experiment with SF-539; > 100 µM (inactive) with KM12. In the experiment with LOX IMVI, the GI50 is > 100 µM (inactive).
On to `O=C1N=C2N=C(c3ccc(Cl)cc3)N(c3ccc(Cl)cc3)N2Sc2ccccc21`, for which the GI50 in the experiment on SN12C, in the experiment with 786-0, in the experiment with SK-OV-3, in the experiment with SW-620, in the experiment with SK-MEL-28 and in the experiment on EKVX was > 100 µM (inactive) throughout. Besides, the GI50 is > 100 µM (inactive) in the experiment with RPMI-8226; 36.1 µM (inactive) in the experiment with HOP-62; 39.8 µM (inactive) in the experiment with A549; > 100 µM (inactive) with CCRF-CEM; 81.3 µM (inactive) with NCI-H460; > 100 µM (inactive) in the experiment with NCI-H226. In addition, the GI50 in the experiment on Malme-3M is > 100 µM (inactive); in the experiment on K562, > 100 µM (inactive); in the experiment on HCT-15, greater than 100 µM; in the experiment with SF-539, > 100 µM (inactive); in the experiment on KM12, 83.9 µM (inactive); with LOX IMVI, > 100 µM (inactive).
